# Test results taken from US11434234B2, “Methods and agents for treating disease” (ANGION BIOMEDICA CORP., priority 2014, dated 2022).
# Experiments:
# human CYP11B2 = biological target: T1, human CYP11B2 (Homo sapiens, UniProt P19099); assay: Aldosterone inhibitory activity in V79 cells expressing human CYP11B2; assay type: cell-based; conditions: V79 Chinese hamster cells stably transfected with human CYP11B2; substrate 11-deoxycorticosterone 100 nM; read-out: IC50, inhibition of the production of aldosterone
# T1 construct: expressed in transfected cells; host or cells: V79 Chinese hamster cells
# T1 sequence (P19099 25-503): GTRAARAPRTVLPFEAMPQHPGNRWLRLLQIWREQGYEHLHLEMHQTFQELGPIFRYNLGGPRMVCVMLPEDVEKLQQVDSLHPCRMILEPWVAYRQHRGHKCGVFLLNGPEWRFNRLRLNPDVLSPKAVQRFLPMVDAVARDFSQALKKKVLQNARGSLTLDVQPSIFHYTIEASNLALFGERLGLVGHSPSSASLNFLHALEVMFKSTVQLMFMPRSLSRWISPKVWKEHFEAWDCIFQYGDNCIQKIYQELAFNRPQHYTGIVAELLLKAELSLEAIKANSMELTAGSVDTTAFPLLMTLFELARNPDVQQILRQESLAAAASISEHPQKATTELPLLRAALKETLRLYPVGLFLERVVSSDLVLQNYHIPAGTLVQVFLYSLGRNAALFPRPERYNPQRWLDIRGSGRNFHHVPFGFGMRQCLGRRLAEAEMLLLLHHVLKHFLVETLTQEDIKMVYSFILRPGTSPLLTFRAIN
# Experimental: For the determination of aldosterone inhibitory activity, tests were carried out using V79 Chinese hamster cells stably transfected with human CYP11B2 or CYP11B1 and using assay protocols as described in Ehmer P B, Bureik M, Bernhardt R, Muller U, Hartmann R W. Development of a test system for inhibitors of human aldosterone synthase (CYP11B2): screening in fission yeast and evaluation of selectivity in V79 cells. J. Steroid Biochem. Mol. Biol. 2002 June; 81(2):173-9. The concentration of the substrate 11-deoxycorticosterone in the assay was 100 nM.
# aldosterone synthase = biological target: T2, aldosterone synthase (Homo sapiens, UniProt P19099); assay: Ang-II stimulated aldosterone production in H295R cells (ELISA); assay type: cell-based
# T2 construct: host or cells: H295R human adrenocortical carcinoma cells
# T2 sequence (P19099 25-503): T1 sequence (P19099 25-503)
# Experimental: To test the activity of compounds in a cell-based assay, a well-established assay described in the literature was used [Muller-Vieira U, Angotti M, Hartmann R W. The adrenocortical tumor cell line NCI-H295R as an in vitro screening system for the evaluation of CYP11B2 (aldosterone synthase) and CYP11B1 (steroid-11beta-hydroxylase) inhibitors. […] In brief, human adrenocortical carcinoma cells (H295R; ATCC CRL-2128) were plated in 96-well plates and the effect of compounds on angiotensin-II (Ang-II) stimulated aldosterone production was determined in the supernatant using an ELISA kit (Genway 40-521-475012). […] Compounds were tested in the aldosterone production assay at various concentrations and from dose-response inhibition curves the % inhibition at specific concentrations and the IC50 were calculated.
Structure (SMILES),IC50 (human CYP11B2) [nM],Ang-II stimulated aldosterone production (aldosterone synthase),basal aldosterone production (aldosterone synthase)
"CCCC(O)(c1nc2ccc(OC(F)(F)F)c(Cl)c2s1)c1cnccc1OCC (centres unmarked) [Example 59, 1-(7-chloro-6-(trifluoromethoxy)benzo[d]thiazol-2-yl)-1-(4-ethoxypyridin-3-yl)butan-1-ol]",< 1000,,
"CCOc1ccncc1C(O)(c1nc2ccc(Br)cc2s1)C(C)C (centres unmarked) [Example 32, 1-(6-bromobenzo[d]thiazol-2-yl)-1-(4-ethoxypyridin-3-yl)-2-methylpropan-1-ol]",< 1000,,
"COc1ccncc1C(O)(c1nc2ccc(Br)cc2s1)C(C)C (centres unmarked) [Example 25, 1-(6-bromobenzo[d]thiazol-2-yl)-1-(4-methoxypyridin-3-yl)-2-methylpropan-1-ol]",< 1000,,
CCOC(=O)c1cncn1[C@H](C)c1ccccc1 [etomidate],,significantly inhibited,significantly inhibited
"CCCC(O)(c1nc2ccc(Oc3ccc(OC(F)(F)F)cc3)cc2s1)c1cnccc1OCC (centres unmarked) [Example 54, 1-(4-ethoxypyridin-3-yl)-1-(6-(4-(trifluoromethoxy)phenoxy)benzo[d]thiazol-2-yl)butan-1-ol]",< 1000,,
"CCCC(O)(c1nc2cc(F)c(OC(F)(F)F)cc2s1)c1cnccc1OCC (centres unmarked) [Example 62, 1-(4-ethoxypyridin-3-yl)-1-(5-fluoro-6-(trifluoromethoxy)benzo[d]thiazol-2-yl)butan-1-ol]",< 1000,,
"CCCOc1ccncc1C(O)(CCC)c1nc2ccc(OC(F)(F)F)cc2s1 (centres unmarked) [Example 51, 1-(4-propoxypyridin-3-yl)-1-(6-(trifluoromethoxy)benzo[d]thiazol-2-yl)butan-1-ol]",< 1000,,
"CCCC(O)(c1nc2ccc(Oc3ccc(F)cc3)cc2s1)c1cnccc1OCC (centres unmarked) [Example 55, 1-(4-ethoxypyridin-3-yl)-1-(6-(4-fluorophenoxy)benzo[d]thiazol-2-yl)butan-1-ol]",< 1000,,
CC(=O)N1CCN(c2ccc(OCC3COC(Cn4ccnc4)(c4ccc(Cl)cc4Cl)O3)cc2)CC1 (centres unmarked) [ketoconazole],,significantly inhibited,significantly inhibited
